According to ChEMBL document CHEMBL1138763 (J Med Chem, 2004):

Columns and labels:
[1] = target: T1, Prostaglandin G/H synthase 2 (Homo sapiens, UniProt P35354); assay type: tissue-based, Blood
T1 sequence (P35354 whole entry): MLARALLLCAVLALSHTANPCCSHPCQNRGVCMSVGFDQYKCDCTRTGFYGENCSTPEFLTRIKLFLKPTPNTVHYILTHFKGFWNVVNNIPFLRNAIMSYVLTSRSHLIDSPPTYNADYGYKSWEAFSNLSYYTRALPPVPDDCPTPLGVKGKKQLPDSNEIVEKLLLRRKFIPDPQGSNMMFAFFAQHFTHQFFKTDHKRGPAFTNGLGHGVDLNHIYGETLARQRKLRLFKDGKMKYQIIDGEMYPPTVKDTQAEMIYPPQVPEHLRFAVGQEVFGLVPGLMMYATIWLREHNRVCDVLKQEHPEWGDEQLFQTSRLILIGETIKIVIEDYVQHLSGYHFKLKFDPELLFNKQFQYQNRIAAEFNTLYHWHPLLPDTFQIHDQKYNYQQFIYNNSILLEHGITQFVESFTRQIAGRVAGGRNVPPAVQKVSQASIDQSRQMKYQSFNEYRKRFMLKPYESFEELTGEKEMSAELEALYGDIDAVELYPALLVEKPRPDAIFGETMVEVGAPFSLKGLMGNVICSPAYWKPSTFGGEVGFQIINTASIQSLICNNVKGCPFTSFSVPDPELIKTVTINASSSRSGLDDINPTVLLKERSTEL
Description: In vitro inhibitory concentration against Prostaglandin G/H synthase 2 in human whole blood assay

[2] = target: Prostaglandin G/H synthase 1 (Homo sapiens, UniProt P23219); test: In vitro inhibitory concentration against Prostaglandin G/H synthase 1 in human whole blood assay; assay type: tissue-based
Chain of Prostaglandin G/H synthase 1 (P23219 whole entry): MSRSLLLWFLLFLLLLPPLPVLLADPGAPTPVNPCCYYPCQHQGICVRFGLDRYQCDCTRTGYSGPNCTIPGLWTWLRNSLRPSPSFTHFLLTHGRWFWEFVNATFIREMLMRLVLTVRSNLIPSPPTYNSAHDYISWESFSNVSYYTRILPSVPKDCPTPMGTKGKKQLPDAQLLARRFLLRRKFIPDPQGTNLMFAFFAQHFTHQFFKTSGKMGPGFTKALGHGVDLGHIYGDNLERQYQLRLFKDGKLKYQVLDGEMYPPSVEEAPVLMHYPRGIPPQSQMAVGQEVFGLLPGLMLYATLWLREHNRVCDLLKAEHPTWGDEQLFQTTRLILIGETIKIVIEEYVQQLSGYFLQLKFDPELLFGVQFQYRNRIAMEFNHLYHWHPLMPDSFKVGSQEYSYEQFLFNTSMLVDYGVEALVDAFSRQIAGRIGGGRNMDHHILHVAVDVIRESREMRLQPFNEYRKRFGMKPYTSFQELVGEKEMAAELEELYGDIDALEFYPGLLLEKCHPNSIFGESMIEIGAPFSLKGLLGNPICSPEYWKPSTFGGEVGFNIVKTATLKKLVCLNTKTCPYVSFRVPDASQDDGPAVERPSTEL

For `COc1cc(OC)c(-c2noc(C)c2-c2ccc(S(N)(=O)=O)cc2)c(OC)c1Cl`, which IC50 [1] is on record?
Its IC50 is greater than 100 µM.

What about the IC50 [2] of the same compound?
Its IC50 is greater than 100 µM.

How did the IC50 [1] turn out when `COc1cc(OC)c(-c2noc(C)c2-c2ccccc2)c(OC)c1Cl` was run?
The IC50 was greater than 100 µM.

And the IC50 [2]?
Its IC50 is greater than 100 µM.

Which IC50 [1] does the source give for `Cc1onc(-c2ccc(Cl)o2)c1-c1ccccc1` here?
The IC50 was greater than 100 µM.

How did the IC50 [1] turn out when `COc1cc(OC)c(-c2noc(C)c2-c2ccccc2)c(OC)c1` was run?
The IC50 was greater than 100 µM.

What about the IC50 [2] of the same compound?
Its IC50 is greater than 100 µM.

Which IC50 [1] does the source give for `Cc1cc(C)c(S(N)(=O)=O)c(C)c1-c1noc(C)c1-c1ccc(S(N)(=O)=O)cc1` here?
The IC50 was greater than 100 µM.

What about the IC50 [2] of the same compound?
Its IC50 is greater than 100 µM.

Which IC50 [1] does the source give for `Cc1cc(C)c(-c2noc(C)c2-c2ccccc2)c(C)c1` here?
Its IC50 is greater than 100 µM.

And the IC50 [2]?
Its IC50 is greater than 100 µM.

How did the IC50 [1] turn out when `Cc1onc(-c2ccc(Cl)o2)c1-c1ccc(S(N)(=O)=O)cc1` was run?
The IC50 was greater than 100 µM.

And the IC50 [2]?
The IC50 was greater than 100 µM.

Which results are given for `Cc1cc(C)c(S(N)(=O)=O)c(C)c1-c1noc(C)c1-c1ccccc1`?
IC50 [1]: > 100 µM; IC50 [2]: > 100 µM
